Reference: ChEMBL document CHEMBL5338730, “Metabolism-Guided Selective Androgen Receptor Antagonists: Design, Synthesis, and Biological Evaluation for Activity against Enzalutamide-Resistant Prostate Cancer” (J Med Chem, 2023)

Legend:
[1] = in vitro; conditions: mouse, microsomes
[2] = mouse, microsomes, 1 h, 50 µM

SMILES | half-life at 1 h, 50 µM [1] | CLH [2]
C[C@](O)(CS(=O)(=O)c1ccc(F)cc1)C(=O)Nc1ccc(C#N)c(C(F)(F)F)c1 [(R)-BICALUTAMIDE] | 10 h | –
C[C@](O)(COc1ccc(C#N)cc1)C(=O)Nc1ccc(C#N)c(C(F)(F)F)c1 [ENOBOSARM] | – | 1400 µL/min/mg
